# Source: publication PMC4062305 (Journal of medicinal chemistry, 2013)
# Entries after “also recorded” stand apart in the source; their conditions may differ.
# Target: T1, FAAH activity in brain (Mus musculus, UniProt O08914)
# T1 sequence (O08914 1-579): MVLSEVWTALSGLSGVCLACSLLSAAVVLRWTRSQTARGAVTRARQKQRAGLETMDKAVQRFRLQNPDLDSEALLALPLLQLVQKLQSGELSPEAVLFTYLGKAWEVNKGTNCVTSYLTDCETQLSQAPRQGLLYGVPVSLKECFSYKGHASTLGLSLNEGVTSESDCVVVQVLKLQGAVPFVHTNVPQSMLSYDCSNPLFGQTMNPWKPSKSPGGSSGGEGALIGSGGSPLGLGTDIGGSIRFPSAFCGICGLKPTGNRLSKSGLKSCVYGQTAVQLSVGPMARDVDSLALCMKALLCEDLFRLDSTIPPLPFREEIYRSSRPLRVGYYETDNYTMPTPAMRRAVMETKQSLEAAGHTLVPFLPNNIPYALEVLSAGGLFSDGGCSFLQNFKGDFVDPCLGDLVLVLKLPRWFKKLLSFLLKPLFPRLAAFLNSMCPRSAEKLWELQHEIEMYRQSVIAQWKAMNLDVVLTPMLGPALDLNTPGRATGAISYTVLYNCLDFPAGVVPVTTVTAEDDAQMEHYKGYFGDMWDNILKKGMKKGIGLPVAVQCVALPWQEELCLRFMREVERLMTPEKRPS
# Assay: Ex vivo FAAH inhibition in brain after systemic administration
# Parameters: species or system Swiss Webster mice
# Conditions: s.c. doses up to 40 or 75 mg/kg, 1 h after injection
row,SMILES,Access to the brain in dose-exploration study (brain FAAH inhibition)
1,"CC(=O)Nc1cccc(-c2cc(OC(=O)NC3CCCCC3)ccc2O)c1 [7c, Cyclohexylcarbamic Acid 3’-Acetamido-6-hydroxybiphenyl-3-yl Ester]","significantly higher brain penetration relative to 3, 7d and 7e at all doses tested"
2,"NC(=O)c1cccc(-c2cc(OC(=O)NC3CCCCC3)ccc2C(=O)O)c1 [compound 29, Cyclohexylcarbamic Acid 3’-Carbamoyl-6-carboxybiphenyl-3-yl Ester]","failed to enter the brain even at the highest dose tested; also recorded: did not enter the brain, even at the highest dosage tested"
3,"N.NC(=O)c1cccc(-c2cc(OC(=O)NC3CCCCC3)ccc2OS(=O)(=O)O)c1 [compound 30, Ammonium Cyclohexylcarbamic Acid 3’-Carbamoyl-6-sulfatebiphenyl-3-yl Ester]","did not enter the brain, even at the highest dosage tested"
